Laboratory results published in PMC6478789, “A chemical toolbox for the study of bromodomains and epigenetic signaling” (Nature Communications, 2019).

What was measured:
[1] = target: T1, ATAD2A (Homo sapiens, UniProt Q6PL18); set-up: purchased; method as in ref 20 (suppl.); settings: BROMOscan; ref 20 (suppl.); cited from earlier work
T1 sequence (Q6PL18 980-1092 limits assumed): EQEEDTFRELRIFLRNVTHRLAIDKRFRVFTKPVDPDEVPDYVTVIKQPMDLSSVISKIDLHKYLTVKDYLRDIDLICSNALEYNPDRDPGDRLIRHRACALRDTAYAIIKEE

[2] = test system: MDA-MB-436 cells; assay: Acetyl-CoA measurement assay; assay type: cell-based, human; settings: BAY-876, 5 days
Method: Cells were seeded in six-well plates followed by overnight incubation. The next day, cells were treated with DMSO or the indicated concentration of BAY-876. After 5 days, cells were lysed, and intracellular metabolites were measured using commercial kits detecting acetyl-CoA (PicoProbe, Abcam ab87546) and NAD^+/NADH ratio (Abcam 65348).

[3] = target: T2, ATAD2B (Homo sapiens, UniProt Q9ULI0); set-up: purchased; method as in ref 18 (suppl.); settings: ITC; ref 18 (suppl.); cited from earlier work
T2 sequence (Q9ULI0 951-1066 limits assumed): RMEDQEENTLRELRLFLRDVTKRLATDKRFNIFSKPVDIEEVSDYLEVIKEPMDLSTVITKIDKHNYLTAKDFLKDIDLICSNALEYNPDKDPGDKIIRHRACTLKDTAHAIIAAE

[4] = target: p300; settings: ITC data; ref 9 (suppl.); cited from earlier work
[5] = test system: MDA-MB-436 cells; assay: Confluency with BRPF inhibitors and BAY-876; assay type: cell-based, human; settings: 3 μM, 7 days
Method: (§1) Graph indicates mean, error bars denote s.d. from eight wells (from two independent assays) and p-value was computed using the Benjamini-Hochberg t test; ***p < 0.001. d Immunoblot validation of BRPF knockdown in MDA-MB-436 cells. e Quantitative real-time PCR (RT-qPCR) validation of BRPF knockdown in MDA-MB-436 cells. […] Raw data images are available in Supplementary Fig. 4
TNBC cell lines were seeded in sterile, transparent 384-well plates at 500 cells per well in 50 µl media. Chemical probes were delivered in dimethyl sulfoxide (DMSO). Cell confluency at 7 days was evaluated using an Incucyte ZOOM live cell imaging device (Essen Bioscence) and analyzed with the Incucyte ZOOM (2016A) software based on phase contrast image.

[6] = test system: MDA-MB436 cells; assay: Cell apoptosis assay (caspase-3/7); assay type: cell-based, human; settings: 3 μM OF-1 + 3 μM BAY-876, 5 days, versus either alone
Method: Cells were seeded into 96-well plates at 3000 cells per well and left to adhere overnight. Then, cells were treated with DMSO or BAY-876 for 5 days, followed by addition of Incucyte TM Caspase- 3/7 reagents. Imaging of plates was carried out in an Incucyte Zoom instrument with a ×10 objective using the standard scan type. Data were analyzed using the integrated software provided with the instrument.
(§2) Wu et al., Supplementary figures and tables 5 indicate mean and error bars denote standard deviation from eight wells (from two independent assays). b) A representative immunoblot of histone acetylation level across ten TNBC lines. c) Plot of ECAR and histone acetylation across ten TNBC lines. […] Cell apoptotic activity was quantified by the fluorescent caspase 3/7 active objects. […]
Graph indicate mean and error bars denote standard deviation from four independent assay s. p value computed using a two - stage step -up Benjamini t test j) Immunoblot based quantification of H3K14ac abundance using total H3 as a control in MDA-MB-436 cells following control or 3 μM of the indicated chemical probes during a 5-day treatment. Graph indicate mean and error bars denote standard deviation from three independent assays. p value computed using a two-stage step-up Benjamini t test; **p<0.01; *** p<0.001. k) Immunoblot based quantification of H3K14ac abundance using total […]

[7] = test system: MDA-MB-436 cells; assay: Immunoblot of H3K14 acetylation; assay type: cell-based, human; settings: 3 μM, 5 days; compared to NI-57 and PFI-4
Description: as §1, with “Fig. 4 […]” for “Fig. 4”
Total cell lysates were resolved in 4−12% Bis-Tris protein gels (Invitrogen) with MOPS (3-(N-morpholino)propanesulfonic acid) buffer (Invitrogen) and transferred for 1.5 h (80 V) onto polyvinylidene fluoride membrane (Millipore) in Tris-glycine transfer buffer containing 20% MeOH and 0.05% sodium dodecyl sulfate. […] The signal was read on an Odyssey scanner (LiCor) at 800 and 700 nm.
as §2

SMILES: COc1cc(Cl)c(C(=O)N[C@@H](CN[C@H]2CC[C@@H](N)CC2)Cc2ccc(C#N)cc2)cc1-c1ccc(CN[C@H](C)c2ccc(C)cc2)o1 [BAY-850]
- Kd [1]: 120 nM

SMILES: Cc1c(NC(=O)c2cc(C(N)=O)nc3cc(F)ccc23)c(C(F)(F)F)nn1Cc1ccc(C#N)cc1 [BAY-876]
- absolute acetyl-CoA level [2]: decrease

SMILES: CO[C@H]1CNC[C@@H](OCC2CCC(F)(F)CC2)[C@@H]1Nc1ncc(-c2cncc(C)c2)c2cc(C)c(=O)[nH]c12 [GSK8814]
- Kd [3]: 10 nM

SMILES: CCC(=O)N1CCOc2c(cc(-c3ccc(OC)c(OC)c3)cc2OCC2CCCN(C)C2)C1 (stereo not shown) [I-CBP112]
- Kd [4]: 625 nM

SMILES: COc1cc2c(cc1NS(=O)(=O)c1ccc(Br)cc1C)n(C)c(=O)n2C [OF-1]
- cell viability, co-treatment with BAY-876 [5]: strongest reduction of cell viability
- apoptosis markers caspase-3/7 [6]: induced at a significantly higher level
- acetylation of H3K14 [7]: significantly decreased
